From PubChem BioAssay AID200 (DTP/NCI, 2004)
Where “and” joins values, the source holds several entries; their conditions need not be identical. Equal values may be shown once. Toxic doses and inconclusive results are not listed. How the source made its calls: active means survival T/C of 150% or more; inactive means T/C below 125% in these data. Where a SMILES comes first, the peptide text is derived from it. [ ]: non-standard residue; d: D form. The star is where a group is joined. Cbz = O=C(OCc1ccccc1)*; Nva = CCC[CH](N)C(=O)O

System: B6C3F1 mice, B16 melanoma ip, median survival T/C
Assay: NCI In Vivo Anticancer Drug Screen. Data for tumor model B16 Melanoma (intraperitoneal) in B6C3F1 mice
Conditions: endpoint: median survival time, higher = longer survival
Method in brief: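 Readout: survival or tumor size in treated mice relative to vehicle controls (T/C). Model uses transplantable tumors grown in mice.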

[1] = dose: 12.5 mg/kg/injection, schedule: Q01DX009 (ip), vehicle: saline with Tween-80
[2] = dose: 12.5 mg/kg/injection, schedule: Q01DX009 (ip), vehicle: saline
[3] = dose: 25.0 mg/kg/injection, schedule: Q01DX009 (ip), vehicle: saline with Tween-80
[4] = dose: 25.0 mg/kg/injection, schedule: Q01DX009 (ip), vehicle: saline
[5] = dose: 50.0 mg/kg/injection, schedule: Q01DX009 (ip), vehicle: saline with Tween-80
[6] = dose: 50.0 mg/kg/injection, schedule: Q01DX009 (ip), vehicle: saline
[7] = dose: 100.0 mg/kg/injection, schedule: Q01DX009 (ip), vehicle: saline with Tween-80
[8] = dose: 100.0 mg/kg/injection, schedule: Q01DX009 (ip), vehicle: saline
[9] = dose: 200.0 mg/kg/injection, schedule: Q01DX009 (ip), vehicle: saline with Tween-80
[10] = dose: 200.0 mg/kg/injection, schedule: Q01DX009 (ip), vehicle: saline
[11] = dose: 400.0 mg/kg/injection, schedule: Q01DX009 (ip), vehicle: saline with Tween-80
[12] = dose: 100.0 mg/kg/injection, schedule: Q01DX009 (ip), vehicle: Klucel (hydroxypropylcellulose) (HPC)
[13] = dose: 200.0 mg/kg/injection, schedule: Q01DX009 (ip), vehicle: Klucel (hydroxypropylcellulose) (HPC)
[14] = dose: 400.0 mg/kg/injection, schedule: Q01DX009 (ip), vehicle: Klucel (hydroxypropylcellulose) (HPC)
[15] = dose: 6.25 mg/kg/injection, schedule: Q01DX009 (ip), vehicle: saline with Tween-80
[16] = dose: 12.5 mg/kg/injection, schedule: Q01DX009 (ip), vehicle: water
[17] = dose: 25.0 mg/kg/injection, schedule: Q01DX009 (ip), vehicle: water
[18] = dose: 50.0 mg/kg/injection, schedule: Q01DX009 (ip), vehicle: water

Measured: T/C

CC1(C)OC1CS(=O)c1ccccc1 (stereo unspecified)
inactive: [1] 96 % of control | [2] 93 % of control | [3] 99 % of control | [4] 98 % of control | [5] 102 % of control | [6] 96 % of control | [7] 95 % of control | [8] 98 % of control | [9] 90 % of control | [10] 98 % of control | [11] 89 % of control | dose: 400.0 mg/kg/injection, schedule: Q01DX009 (ip), vehicle: saline 93 % of control

Clc1ccccc1C(Nc1cnccn1)Nc1cnccn1
inactive: [3] 95 % of control and 101 % of control | [5] 98 % of control and 107 % of control | [7] 118 % of control and 108 % of control | [9] 116 % of control

C/C(=N\NC(=O)c1ccccc1O)c1cccc(/C(C)=N/NC(=O)c2ccccc2O)n1
inactive: dose: 3.0 mg/kg/injection, schedule: Q01DX009 (ip), vehicle: saline 102 % of control | dose: 6.0 mg/kg/injection, schedule: Q01DX009 (ip), vehicle: saline 96 % of control

NC(=O)CCC(NC(=O)OCc1ccccc1)C(=O)NCC(=O)O (stereo unspecified)
inactive: dose: 12.0 mg/kg/injection, schedule: Q01DX009 (ip), vehicle: Klucel (hydroxypropylcellulose) (HPC) 110 % of control | dose: 25.0 mg/kg/injection, schedule: Q01DX009 (ip), vehicle: Klucel (hydroxypropylcellulose) (HPC) 98 % of control | dose: 50.0 mg/kg/injection, schedule: Q01DX009 (ip), vehicle: Klucel (hydroxypropylcellulose) (HPC) 118 % of control | [12] 95 % of control | [13] 98 % of control | [14] 103 % of control

CC(C)CC(NC(=O)C(O)C(N)Cc1ccccc1)C(=O)O (stereo unspecified)
inactive: dose: 10.0 micrograms/kg/injection, schedule: Q01DX005 (ip), vehicle: saline 99 % of control | dose: 10.0 micrograms/kg/injection, schedule: Q01DX005 (oral), vehicle: saline 100 % of control | dose: 10.0 micrograms/mouse/injection, schedule: Q01DX006 (ip), vehicle: saline 101 % of control | dose: 20.0 micrograms/mouse/injection, schedule: Q01DX006 (oral), vehicle: saline 95 % of control | dose: 100.0 micrograms/kg/injection, schedule: Q01DX005 (ip), vehicle: saline 96 % of control | dose: 100.0 micrograms/kg/injection, schedule: Q01DX005 (oral), vehicle: saline 98 % of control | dose: 100.0 micrograms/mouse/injection, schedule: Q01DX006 (ip), vehicle: saline 108 % of control | dose: 200.0 micrograms/mouse/injection, schedule: Q01DX006 (oral), vehicle: saline 102 % of control

O=C(O)COc1ccc(-c2ccc(Br)cc2)cc1
inactive: [3] 95 % of control | [5] 98 % of control | [7] 87 % of control | [9] 96 % of control | [11] 94 % of control

CC(=O)Nc1c2sscc-2n(C)c1=O
inactive: dose: 0.19 mg/kg/injection, schedule: Q01DX009 (ip), vehicle: saline 105 % of control | dose: 0.39 mg/kg/injection, schedule: Q01DX009 (ip), vehicle: saline 93 % of control | dose: 0.78 mg/kg/injection, schedule: Q01DX009 (ip), vehicle: saline 94 % of control

Cc1cc2c(C(C)C)c(O)c(O)c(C=O)c2c(O)c1-c1c(C)cc2c(C(C)C)c(O)c(O)c(C=O)c2c1O
inactive: dose: 0.38 mg/kg/injection, schedule: Q01DX009 (ip), vehicle: saline with Tween-80 97 % of control | dose: 0.75 mg/kg/injection, schedule: Q01DX009 (ip), vehicle: saline with Tween-80 100 % of control | dose: 1.5 mg/kg/injection, schedule: Q01DX009 (ip), vehicle: saline with Tween-80 98 % of control | dose: 3.0 mg/kg/injection, schedule: Q01DX009 (ip), vehicle: saline with Tween-80 106 % of control

O=C1NC(=O)C2C3C=CC(C12)C1C2C(=O)NC(=O)C2C31 (stereo unspecified)
inactive: [1] 108 % of control and 100 % of control | dose: 19.7 mg/kg/injection, schedule: Q01DX009 (ip), vehicle: water 107 % of control | [3] 114 % of control and 104 % of control | dose: 32.9 mg/kg/injection, schedule: Q01DX009 (ip), vehicle: water 98 % of control | [5] 117 % of control | dose: 54.8 mg/kg/injection, schedule: Q01DX009 (ip), vehicle: water 117 % of control | [7] 120 % of control and 124 % of control

COc1cccc2c1C(=O)c1c(O)c3c(c(O)c1C2=O)C[C@@](O)(C(C)=O)C[C@@H]3OC1CC(N(C)Cc2ccccc2)C(O)C(C)O1 (stereo partly specified)
inactive: dose: 3.13 mg/kg/injection, schedule: Q01DX001 (ip), vehicle: distilled water + Tween-80 114 % of control | dose: 12.5 mg/kg/injection, schedule: Q01DX001 (ip), vehicle: distilled water + Tween-80 122 % of control

Nc1ncnc2c1ncn2C1OC(COP(=O)(O)OC2C(O)C(COP(=O)(O)OC3C(O)C(COP(=O)(O)OP(=O)(O)OP(=O)(O)O)OC3n3cnc4c(N)ncnc43)OC2n2cnc3c(N)ncnc32)C(O)C1O (stereo unspecified)
inactive: dose: 0.12 mg/kg/injection, schedule: Q01DX009 (ip), vehicle: distilled water + Tween-80 + alcohol 88 % of control | dose: 0.25 mg/kg/injection, schedule: Q01DX009 (ip), vehicle: distilled water + Tween-80 + alcohol 91 % of control | dose: 0.5 mg/kg/injection, schedule: Q01DX009 (ip), vehicle: distilled water + Tween-80 + alcohol 94 % of control | dose: 1.0 mg/kg/injection, schedule: Q01DX009 (ip), vehicle: distilled water + Tween-80 + alcohol 98 % of control

O=Cc1ccc([N+](=O)[O-])s1
inactive: dose: 3.12 mg/kg/injection, schedule: Q01DX009 (ip), vehicle: saline with Tween-80 98 % of control | [15] 105 % of control | [1] 101 % of control | [3] 101 % of control | [5] 88 % of control

O=C(O)C1CC(c2ccccc2)=NN1c1ccccc1 (stereo unspecified)
inactive: [16] 113 % of control | [17] 120 % of control | [18] 107 % of control | dose: 100.0 mg/kg/injection, schedule: Q01DX009 (ip), vehicle: water 103 % of control | dose: 200.0 mg/kg/injection, schedule: Q01DX009 (ip), vehicle: water 110 % of control

CCCC(NC(=O)OCc1ccccc1)C(=O)NC(CC(C)C)C(N)=O (stereo unspecified) (Cbz-[Nva]-Leu-NH2; configuration not given here)
inactive: [12] 98 % of control | [13] 94 % of control | [14] 97 % of control

O=C1OC(=O)[C@H]2[C@@H]1[C@H]1C=C[C@@H]2OC1=O
inactive: [2] 102 % of control | [4] 101 % of control | [6] 106 % of control | [8] 102 % of control | [10] 99 % of control

CCN(CC)c1ccc2cc3ccc(=[N+](CC)CC)cc-3oc2c1
inactive: dose: 2.5 mg/kg/injection, schedule: Q01DX009 (ip), vehicle: Klucel (hydroxypropylcellulose) (HPC) 104 % of control | dose: 5.0 mg/kg/injection, schedule: Q01DX009 (ip), vehicle: Klucel (hydroxypropylcellulose) (HPC) 96 % of control | dose: 10.0 mg/kg/injection, schedule: Q01DX009 (ip), vehicle: Klucel (hydroxypropylcellulose) (HPC) 88 % of control

[Cl][Pt][Cl].[NH-]C(CO)C(=O)O (stereo unspecified)
inactive: dose: 3.13 mg/kg/injection, schedule: Q01DX009 (ip), vehicle: water 98 % of control | dose: 6.25 mg/kg/injection, schedule: Q01DX009 (ip), vehicle: water 106 % of control | [16] 116 % of control and 107 % of control | [17] 120 % of control | [18] 114 % of control

C/C(=N\NC(=S)N1CC2CCC(CC2)C1)c1nccs1
inactive: [15] 100 % of control | [1] 107 % of control | [3] 105 % of control
